# Where two headings read alike, the source gives them in different places.
# Key:
# [1] = polymorphic form after one year storage (XRD and IR); assay type: physicochemical; details: one year at room temperature and ambient atmosphere conditions
# Source text: X-ray Powder Diffraction (XRD). The XRD diffractograms were obtained using a RX SIEMENS D5000 diffractometer with a vertical goniometer, a copper anodic tube, and radiation CuKα, λ=1, 54056 Á.
# Infrared Spectra (IR). Fourier transform IR spectra were acquired on a Thermo Nicolet Nexus spectrometer, and polymorphs were characterized in potassium bromide pellets.
# Analytical data: XRD: Form A, see FIG. 1; IR: see FIG. 2; DSC: see FIG. 7. Analytical data of the compound after one year at room temperature and ambient atmosphere conditions (XRD and IR): Form A.
# Analytical data: XRD: Form B, see FIG. 3; DSC: see FIG. 8. Analytical data of the compound after one year at room temperature and ambient atmosphere conditions (XRD and IR): Form B.
# [2] = solubility profile at room temperature in organic solvents; assay type: physicochemical
# Source text: Optionally, water can be added to the suspension earlier than the filtration. Further, this filtration step introduces an additional purification step.
crystalline form after one year (XRD and IR) ([1]; listed as Example 4),"solubility ([2]; 1:1 mixture of tetrahydrofuran/water, aqueous with cosolvent or surfactant or cyclodextrin, 1:1 tetrahydrofuran/water, room temperature, read-out: solubility in a 1:1 mixture of tetrahydrofuran/water) [mg/mL]","solubility ([2]; tetrahydrofuran, organic solvent or mixture, tetrahydrofuran, room temperature, read-out: solubility in tetrahydrofuran) [mg/mL]",crystalline form after one year (XRD and IR) ([1]; listed as Example 5),"solubility ([2]; acetonitrile, organic solvent or mixture, acetonitrile (reaction mixture solvent), read-out: solubility in acetonitrile) [mg/mL]","solubility in tetrahydrofuran ([2]; tetrahydrofuran, room temperature)",SMILES
Form A,~50,~50,–,–,–,"CSC(C(N)=O)c1cccc(C(=O)c2ccccc2)c1N (stereo not drawn) [compound (IV) Form A, 2-amino-3-benzoyl-α-(methylthio)benzeneacetamide]"
–,–,–,Form B,~5.9,approx. 33 mg/mL,"CSC(C(N)=O)c1cccc(C(=O)c2ccccc2)c1N (stereo not drawn) [compound (IV) Form B, 2-amino-3-benzoyl-α-(methylthio)benzeneacetamide]"
